The values that follow come from US20160368895A1, “PULMONARY HYPERTENSION TREATING AGENT” (THE UNIVERSITY OF TOKYO, priority 2013, published 2016).

Assay type in all cases: cell-based
In assay [1] the target is T1, human PGI2 receptors (hIP) (Homo sapiens, UniProt P43119).
T1 construct: expressed in transfected cells; host or cells: CHO-K1
Nature of the assay: Method B: positive allosteric modulator activity, cAMP in CHO/hIP cells with 1 nM epoprostenol. To be noted: cAMP relative to 1 nM epoprostenol alone. On the procedure:
The positive allosteric modulator activity of a test compound was measured as a change in the amount of intracellular cyclic AMP (cAMP) in the presence of 1 nM of the IP agonist epoprostenol (manufactured by GlaxoSmithKline), using CHO-K1 cells (CHO/hIP cells) in which human PGI2 receptors (hIP) are stably expressed.
An amount of 5 μL of a mixture (diluted in F-12 culture medium (manufactured by GIBCO) including 0.1% BSA) of epoprostenol dissolved in DMSO and a test compound dissolved in DMSO was dispensed in advance into a 384-well black microplate, and 5 μL of CHO/hIP cells suspended at a concentration of 1.4×10^6 cells/mL in F-12 culture medium including 0.1% BSA were added to the microplate. After 40 minutes of incubation at room temperature, the amount of cAMP was measured using a cAMP assay kit (cAMP HiRange, manufactured by Cisbio Bioassays). Specifically, 5 μL of a cAMP-d2 solution (including a cell lysate) from the kit were added and the reaction was stopped, then 5 μL of a fluorescence-labeled cAMP antibody solution from the kit were added and incubation was performed for 1 hour at room temperature, after which fluorescence was measured using a PHERAstar plate reader (manufactured by BMG) in HTRF (registered trademark) mode. The amount of cAMP in each well was calculated from a cAMP calibration curve obtained using a standard sample, and the activity of each test compound is noted below as a ratio T/C (%) based on the amount of cAMP for 1 nM of epoprostenol alone.

Assay [2] addresses T1, human PGI2 receptors (hIP). Nature of the assay: Method C: effect on epoprostenol-cAMP production curve in CHO/hIP cells (left shift value). To be noted: Table 4, concentration of test compound that halves the EC50 of epoprostenol. As to the method:
The effect of a test compound on the cAMP production curve with respect to the IP agonist epoprostenol (manufactured by GlaxoSmithKline) was investigated using CHO-K1 cells (CHO/hIP cells) in which human PGI2 receptors (hIP) are stably expressed.
(§1) An amount of 5 μL of a mixture (diluted in F-12 culture medium (manufactured by GIBCO) including 0.1% BSA) of epoprostenol dissolved in DMSO and a test compound dissolved in DMSO was dispensed in advance into a 384-well black microplate, and 5 μL of CHO/hIP cells suspended at a concentration of 1.4×10^6 cells/mL in F-12 culture medium including 0.1% BSA were added to the microplate. After 40 minutes of incubation at room temperature, the amount of cAMP was measured using a cAMP assay kit (cAMP HiRange, manufactured by Cisbio Bioassays). Specifically, 5 μL of a cAMP-d2 solution (including a cell lysate) from the kit were added and the reaction was stopped, then 5 μL of a fluorescence-labeled cAMP antibody solution from the kit were added and incubation was performed for 1 hour at room temperature, after which fluorescence was measured using a PHERAstar plate reader (manufactured by BMG) in HTRF (registered trademark) mode. The amount of cAMP in each well was calculated from a cAMP calibration curve obtained using a standard sample, and an epoprostenol-cAMP production curve for the presence of various concentrations of the test compound was created.

The target in assay [3] is T1, human PGI2 receptors (hIP). As to the kind of experiment: Method D: effect on cAMP production in human aortic smooth muscle cells (left shift value). To be noted: concentration of test compound that halves the EC50 of epoprostenol. On the procedure:
The effect of a test compound on the cAMP production curve with respect to the IP agonist epoprostenol (manufactured by GlaxoSmithKline) was investigated using human aortic smooth muscle cells known to express human PGI2 receptors (hIP).
as §1, with “created. […]” for “created.”
In general terms: cAMP levels reflect the balance of adenylyl cyclase and phosphodiesterase activity.

The structures appear in SMILES notation.

T1 sequence (P43119 whole entry): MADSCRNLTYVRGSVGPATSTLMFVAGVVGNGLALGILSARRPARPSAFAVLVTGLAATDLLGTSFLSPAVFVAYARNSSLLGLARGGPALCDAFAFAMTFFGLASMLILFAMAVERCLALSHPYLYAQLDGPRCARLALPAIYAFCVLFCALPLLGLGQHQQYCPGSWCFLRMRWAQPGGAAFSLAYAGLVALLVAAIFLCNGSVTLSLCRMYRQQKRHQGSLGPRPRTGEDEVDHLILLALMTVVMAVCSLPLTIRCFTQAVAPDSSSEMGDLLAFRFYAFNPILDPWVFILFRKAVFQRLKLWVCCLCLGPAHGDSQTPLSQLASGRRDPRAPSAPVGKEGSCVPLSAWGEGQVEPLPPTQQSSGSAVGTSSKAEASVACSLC

One may read the T/C as the result in the treated group divided by that in the control group, in per cent. As to `COc1ccc(C(c2nnnn2C(C)(C)C)N2CCc3ccccc3C2)c(OC)c1` (centres unmarked) [Example 12], the T/C in assay [1] (test concentration 10 uM) is reported as 155.2%. In assay [2], the left shift value is 10.4 µM.
Turning to `CSc1ccccc1C(c1nnnn1C(C)(C)C)N1CCc2ccccc2C1` (centres unmarked) [Example 13], the T/C in assay [1] (test concentration 10 uM) was 218.3%. Also, the left shift value in assay [2] stood at 3.1 µM.
Taken in the same sequence, the figures for `COc1ncccc1C(c1nnnn1C(C)(C)C)N1CCc2ccccc2C1` (centres unmarked) [Example 14] were 132.1% and 17.7 µM.
Compound `COc1cccc(C(c2nnnn2C(C)(C)C)N2CCc3ccccc3C2)c1` (centres unmarked) [Example 15] had a T/C in assay [1] (test concentration 10 uM) of 122.4%. Further, in assay [2], the left shift value amounted to 32.4 µM.
`CC(C)(C)n1nnnc1C(c1ccccc1F)N1CCc2ccc(Cl)cc2C1` (centres unmarked) [Example 16] yielded a T/C in assay [1] (test concentration 10 uM) of 104.6%. In addition, the left shift value in assay [2] was determined as 232.2 µM.
In assay [1] (test concentration 5 uM), `COc1ccccc1C(c1nnnn1C1C2CC3CC(C2)CC1C3)N1CCc2ccccc2C1` (centres unmarked) [Example 20] displayed a T/C of 126.3%. In addition, the left shift value in assay [2] came out at 11.1 µM.
Turning to `COc1ccccc1C(c1nnnn1C1(C)CCCCC1)N1CCc2ccccc2C1` (centres unmarked) [Example 21], the T/C in assay [1] (test concentration 10 uM) is 229.7%. In addition, the left shift value in assay [2] is 2.0 µM.
The like results for `COc1ccccc1C(c1nnnn1C1(C)CCCC1)N1CCc2ccccc2C1` (centres unmarked) [Example 22] were, in that order, 149.6% and 8.3 µM.
The like results for `COc1cc2ccccc2cc1C(c1nnnn1C(C)(C)C)N1CCc2ccccc2C1` (centres unmarked) [Example 23] were, in that order, 106.4% and 119.6 µM.
In turn, `Cc1ccc2c(c1)CN(C(c1ccccc1C)c1nnnn1C(C)(C)C)CC2` (centres unmarked) [Example 24] gave a T/C in assay [1] (test concentration 10 uM) of 116.3%. For the same compound, in assay [2], the left shift value is 61.25 µM.
Taken in the same sequence, the figures for `Cc1ccccc1C(c1nnnn1C(C)(C)C)N1CCc2ccccc2C1` (centres unmarked) [Example 25] were 177.2% and 5.5 µM.
The like results for `CC(C)(C)n1nnnc1C(c1ccccc1N)N1CCc2ccccc2C1` (centres unmarked) [Example 26] were, in that order, 105.5% and 163.7 µM.
Turning to `Cc1ccc2c(c1)CN(C(c1ccccc1C)c1nnnn1C(C)(C)C)CC2` (centres unmarked) [Example 27], the T/C in assay [1] (test concentration 5 uM) is reported as 99.8%. Moreover, in assay [2], the left shift value was found to be 15.2 µM.
`Cc1ccccc1C(c1nnnn1C(C)(C)C)N1CCc2c(Cl)cccc2C1` (centres unmarked) [Example 29] returned a T/C in assay [1] (test concentration 10 uM) of 135.5%. In addition, the left shift value in assay [2] came to 15.2 µM.
Compound `CC(C)(C)n1nnnc1C(c1ccccc1[N+](=O)[O-])N1CCc2ccc(F)cc2C1` (centres unmarked) [Example 30] displayed a T/C in assay [1] (test concentration 10 uM) of 100.4%. Further, the left shift value in assay [2] was found to be 269.8 µM.
`CC(C)(C)n1nnnc1C(C1=CC=CC1)N1CCc2ccccc2C1` (centres unmarked) [Example 31] yielded a T/C in assay [1] (test concentration 10 uM) of 186.2%. In addition, in assay [2], the left shift value came out at 3.5 µM.
Taken in the same sequence, the figures for `CC(C)(C)n1nnnc1C(C1=CCC=C1)N1CCc2ccccc2C1` (centres unmarked) [Example 32] were 153.8% and 8.4 µM.
Take `CC(C)(C)n1nnnc1C(c1ccco1)N1CCc2ccccc2C1` (centres unmarked) [Example 33]: the T/C in assay [1] (test concentration 10 uM) stood at 119.7%. Also, the left shift value in assay [2] was 38.4 µM.
In assay [1] (test concentration 10 uM), `CC(C)(C)n1nnnc1C(c1ccoc1)N1CCc2ccccc2C1` (centres unmarked) [Example 34] showed a T/C of 145.9%. For the same compound, the left shift value in assay [2] worked out at 11.7 µM.
For the compound `CC(C)(C)n1nnnc1C(c1ccc[nH]1)N1CCc2ccccc2C1` (centres unmarked) [Example 35], the T/C in assay [1] (test concentration 10 uM) worked out at 121.8%. In addition, the left shift value in assay [2] was 28.5 µM.
The like results for `CC(C)(C)n1nnnc1C(c1c[nH]c2ccccc12)N1CCc2ccccc2C1` (centres unmarked) [Example 36] were, in that order, 172.6% and 5.7 µM.
The like results for `COc1cccc(OC)c1C(c1nnnn1C(C)(C)C)N1CCc2ccccc2C1` (centres unmarked) [Example 37] were, in that order, 104.9% and 71.1 µM.
The like results for `COc1cc(F)ccc1C(c1nnnn1C(C)(C)C)N1CCc2ccccc2C1` (centres unmarked) [Example 38] were, in that order, 147.0% and 15.1 µM.
Regarding `CC(C)(C)n1nnnc1C(c1ccccc1)N1CCc2ccccc2C1` (centres unmarked) [Example 39], in assay [1] (test concentration 10 uM), the T/C came to 144.4%. Also, the left shift value in assay [2] was found to be 12.3 µM.
The like results for `Cc1ccccc1C(c1nnnn1C1(C)CCCCC1)N1CCc2ccccc2C1` (centres unmarked) [Example 42] were, in that order, 142.5% and 14.5 µM.
As to `COc1cc[nH]c1C(c1nnnn1C(C)(C)C)N1CCc2ccccc2C1` (centres unmarked) [Example 43], the T/C in assay [1] (test concentration 10 uM) was found to be 267.8%. Besides, the left shift value in assay [2] came to 1.2 µM.
The compound `COc1csc(C(c2nnnn2C(C)(C)C)N2CCc3ccccc3C2)c1` (centres unmarked) [Example 44] returned a T/C in assay [1] (test concentration 5 uM) of 143.8%. Besides, the left shift value in assay [2] stood at 7.7 µM.
Taken in the same sequence, the figures for `COc1ccccc1C(c1nnnn1C1(C)CCCCCC1)N1CCc2ccccc2C1` (centres unmarked) [Example 45] were 144.3% and 5.7 µM.
The compound `Cc1ccccc1C(c1nnnn1C1(C)CCCCCC1)N1CCc2ccccc2C1` (centres unmarked) [Example 46] yielded a T/C in assay [1] (test concentration 10 uM) of 106.2%. In assay [2], the left shift value came out at 267.0 µM.
Taken in the same sequence, the figures for `CSc1ccccc1C(c1nnnn1C1(C)CCCCCC1)N1CCc2ccccc2C1` (centres unmarked) [Example 47] were 121.9% and 25.4 µM.
For the compound `CC(C)(C)n1nnnc1C(c1ccccc1F)N1CCc2ccccc2C1` (centres unmarked) [Example 54], the values for the left shift value in assay [3] and in assay [2] were 2.9 µM and 4.7 µM, respectively.
Turning to `CCOc1ccccc1C(C1=NNCN1C(C)(C)C)N1CCc2ccc(O)cc2C1` (centres unmarked) [Example 56], in assay [1] (test concentration 10 uM), the T/C is 101.0%. In addition, in assay [2], the left shift value stood at 117.3 µM.
The compound `CC(C)(C)n1nnnc1C(c1ccccc1O)N1CCc2ccccc2C1` (centres unmarked) [Example 57, 2-((1-tert-butyl-1H-tetrazol-5-yl)(3,4-dihydroisoquinolin-2(1H)-yl)methyl)phenol] yielded a T/C in assay [1] (test concentration 10 uM) of 256.5%. Moreover, in assay [2], the left shift value was determined as 1.4 µM.
The like results for `CC(C)(C)n1nnnc1C(c1ccccc1N)N1CCc2ccccc2C1` (centres unmarked) [Example 58, 2-((1-tert-butyl-1H-tetrazol-5-yl)(3,4-dihydroisoquinolin-2(1H)-yl)methyl)aniline] were, in that order, 102.7% and 78.3 µM.
